From PMC9127186, “Molecular Basis Underlying Hepatobiliary and Renal Excretion of Phenolic Acids of Salvia miltiorrhiza Roots (Danshen)” (Frontiers in Pharmacology, 2022)

molecular target: T1, rat Bsep (Rattus norvegicus, UniProt O70127); experiment: Vesicular transport assay, inside-out membrane vesicles expressing rat Bsep; details: Danshen phenolic acid at 100 μM final concentration, 10 min; rat Bsep vesicles
T1 sequence (O70127 1-1321): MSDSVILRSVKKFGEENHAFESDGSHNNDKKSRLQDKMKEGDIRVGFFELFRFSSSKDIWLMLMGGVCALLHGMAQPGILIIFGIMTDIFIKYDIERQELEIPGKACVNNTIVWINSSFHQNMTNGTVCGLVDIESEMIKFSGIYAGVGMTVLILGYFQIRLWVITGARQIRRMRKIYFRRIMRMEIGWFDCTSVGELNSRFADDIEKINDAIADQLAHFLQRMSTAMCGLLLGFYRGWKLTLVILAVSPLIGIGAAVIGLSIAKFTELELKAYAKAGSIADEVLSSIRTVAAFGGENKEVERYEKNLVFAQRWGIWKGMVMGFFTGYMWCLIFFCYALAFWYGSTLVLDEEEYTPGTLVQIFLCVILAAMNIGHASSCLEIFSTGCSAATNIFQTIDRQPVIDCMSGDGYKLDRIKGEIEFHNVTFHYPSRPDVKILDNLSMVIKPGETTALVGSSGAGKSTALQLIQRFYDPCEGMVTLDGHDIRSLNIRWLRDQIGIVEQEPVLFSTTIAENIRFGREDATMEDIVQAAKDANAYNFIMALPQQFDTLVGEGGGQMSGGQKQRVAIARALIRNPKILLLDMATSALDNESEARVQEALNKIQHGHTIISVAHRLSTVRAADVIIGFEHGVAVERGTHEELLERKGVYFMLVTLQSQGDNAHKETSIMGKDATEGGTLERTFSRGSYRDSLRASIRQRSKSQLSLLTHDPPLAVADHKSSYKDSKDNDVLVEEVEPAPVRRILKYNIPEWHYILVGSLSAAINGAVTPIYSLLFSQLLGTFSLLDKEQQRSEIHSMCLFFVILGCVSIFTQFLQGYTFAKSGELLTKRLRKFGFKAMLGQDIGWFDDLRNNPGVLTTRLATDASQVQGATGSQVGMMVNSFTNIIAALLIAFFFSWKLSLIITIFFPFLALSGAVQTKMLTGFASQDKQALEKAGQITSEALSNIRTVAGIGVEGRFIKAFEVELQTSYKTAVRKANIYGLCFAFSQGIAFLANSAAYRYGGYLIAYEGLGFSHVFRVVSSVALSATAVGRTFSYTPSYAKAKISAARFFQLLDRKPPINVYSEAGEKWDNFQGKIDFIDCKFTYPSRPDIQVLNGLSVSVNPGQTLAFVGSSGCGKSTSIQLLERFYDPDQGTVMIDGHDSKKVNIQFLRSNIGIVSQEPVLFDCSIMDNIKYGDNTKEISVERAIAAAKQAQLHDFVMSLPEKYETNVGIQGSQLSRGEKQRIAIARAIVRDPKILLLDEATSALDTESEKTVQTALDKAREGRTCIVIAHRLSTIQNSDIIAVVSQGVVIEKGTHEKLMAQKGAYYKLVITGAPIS
Procedure: Inside-out membrane vesicles (5 mg protein/mL), prepared from insect cells expressing human multidrug resistance-associated protein (MRP) 2, MRP3, MRP4, breast cancer resistance protein (BCRP), bile salt export pump (BSEP), and multidrug resistance protein (MDR) one and rat Mrp2, Mrp4, Bcrp, and Bsep, and vesicles (5 mg protein/mL; prepared from the insect cells expressing no ABC transporter; serving as negative control) were obtained from Genomembrane (Kanazawa, Japan).
The test Danshen compounds at 100 µM final concentration were separately incubated with the membrane vesicles for 10 min. Buffer C (50 mM MOPS-tris, 70 mM KCl, 7.5 mM MgCl2, pH 7.0) was used for preincubation and incubation, while buffer D (40 mM MOPS-tris, 70 mM KCl, pH 7.0) was used for vesicle washing. The transport rate (pmol/mg protein/min) of the test Danshen compound was calculated using Equation (2): Transport=(CV×VV)/T/WV (2) where C V, V V, T, and W V represent concentration of the compound in vesicular lysates supernatant (μM), volume of the lysates (μL), incubation time (10 min), and amount of vesicle protein amount per well (0.05 mg), respectively. Differential transport of the test Danshen compound between ATP-containing vesicles and AMP-containing vesicles was defined as net transport ratio (TransportATP/TransportAMP ratio). […] All the incubation samples were analyzed by liquid chromatography/mass spectrometry.

| Molecule | TransportATP/TransportAMP ratio (net transport ratio) |
| --- | --- |
| O=C(O)c1ccc(O)c(O)c1 [Protocatechuic acid, protocatechuic acid] | 1.13 ± 0.17 |
| O=C(O)Cc1c(/C=C/C(=O)O[C@H](Cc2ccc(O)c(O)c2)C(=O)O)ccc(O)c1O [Salvianolic acid D, salvianolic acid D] | 1.09 ± 0.23 |
| salvianolic acid B | 1.52 ± 0.67 |
| O=C(/C=C/c1ccc(O)c2c1[C@H](C(=O)O)[C@@H](c1ccc(O)c(O)c1)O2)O[C@H](Cc1ccc(O)c(O)c1)C(=O)O [Lithospermic acid, lithospermic acid] | 1.69 ± 0.37 |

same assay, conditions: rat, 10 min, 100 μM, pH 7

| Molecule | TransportATP/TransportAMP ratio (net transport ratio) |
| --- | --- |
| O=C(/C=C/c1ccc(O)c(O)c1)O[C@H](Cc1ccc(O)c(O)c1)C(=O)O [Rosmarinic acid, rosmarinic acid] | 1.39 ± 0.36 |
| O=C(/C=C/c1ccc(O)c(O)c1/C=C/c1ccc(O)c(O)c1)O[C@H](Cc1ccc(O)c(O)c1)C(=O)O [Salvianolic acid A, salvianolic acid A] | 0.75 ± 0.12 |
